What all share (experiment): pIC50, kinobeads binding competition
Common to all, as to conditions: cell material: Jurkat lysate

The target in test [1] is T1, CDKL5 (UniProt O76039).
T1 sequence (whole entry): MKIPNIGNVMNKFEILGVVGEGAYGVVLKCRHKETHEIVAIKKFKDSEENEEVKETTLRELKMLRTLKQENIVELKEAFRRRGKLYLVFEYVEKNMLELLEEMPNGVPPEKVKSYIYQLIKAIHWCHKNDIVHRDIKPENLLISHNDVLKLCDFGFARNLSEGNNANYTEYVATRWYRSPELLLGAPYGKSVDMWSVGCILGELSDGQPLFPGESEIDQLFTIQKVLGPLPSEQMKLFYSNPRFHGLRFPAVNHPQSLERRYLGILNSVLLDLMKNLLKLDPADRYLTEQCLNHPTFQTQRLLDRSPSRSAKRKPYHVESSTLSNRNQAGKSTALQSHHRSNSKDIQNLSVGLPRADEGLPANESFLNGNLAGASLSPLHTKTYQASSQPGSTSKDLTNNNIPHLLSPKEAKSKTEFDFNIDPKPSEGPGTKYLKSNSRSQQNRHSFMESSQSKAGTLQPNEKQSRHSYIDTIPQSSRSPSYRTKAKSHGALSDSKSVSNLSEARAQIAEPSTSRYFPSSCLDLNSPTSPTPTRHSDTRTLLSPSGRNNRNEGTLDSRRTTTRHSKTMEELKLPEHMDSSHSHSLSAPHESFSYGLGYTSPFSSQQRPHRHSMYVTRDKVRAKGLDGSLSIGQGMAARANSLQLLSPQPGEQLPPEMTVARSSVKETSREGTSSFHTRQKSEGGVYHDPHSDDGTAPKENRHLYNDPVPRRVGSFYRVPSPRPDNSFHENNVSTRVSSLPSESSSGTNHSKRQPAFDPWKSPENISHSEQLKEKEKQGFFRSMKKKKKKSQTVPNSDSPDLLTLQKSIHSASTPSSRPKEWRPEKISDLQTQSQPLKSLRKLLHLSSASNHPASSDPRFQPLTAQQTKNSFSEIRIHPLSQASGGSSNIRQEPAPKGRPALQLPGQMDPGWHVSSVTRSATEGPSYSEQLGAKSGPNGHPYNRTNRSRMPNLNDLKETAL

The target of test [2] is T2, NEK9 (UniProt Q8TD19).
T2 sequence (whole entry): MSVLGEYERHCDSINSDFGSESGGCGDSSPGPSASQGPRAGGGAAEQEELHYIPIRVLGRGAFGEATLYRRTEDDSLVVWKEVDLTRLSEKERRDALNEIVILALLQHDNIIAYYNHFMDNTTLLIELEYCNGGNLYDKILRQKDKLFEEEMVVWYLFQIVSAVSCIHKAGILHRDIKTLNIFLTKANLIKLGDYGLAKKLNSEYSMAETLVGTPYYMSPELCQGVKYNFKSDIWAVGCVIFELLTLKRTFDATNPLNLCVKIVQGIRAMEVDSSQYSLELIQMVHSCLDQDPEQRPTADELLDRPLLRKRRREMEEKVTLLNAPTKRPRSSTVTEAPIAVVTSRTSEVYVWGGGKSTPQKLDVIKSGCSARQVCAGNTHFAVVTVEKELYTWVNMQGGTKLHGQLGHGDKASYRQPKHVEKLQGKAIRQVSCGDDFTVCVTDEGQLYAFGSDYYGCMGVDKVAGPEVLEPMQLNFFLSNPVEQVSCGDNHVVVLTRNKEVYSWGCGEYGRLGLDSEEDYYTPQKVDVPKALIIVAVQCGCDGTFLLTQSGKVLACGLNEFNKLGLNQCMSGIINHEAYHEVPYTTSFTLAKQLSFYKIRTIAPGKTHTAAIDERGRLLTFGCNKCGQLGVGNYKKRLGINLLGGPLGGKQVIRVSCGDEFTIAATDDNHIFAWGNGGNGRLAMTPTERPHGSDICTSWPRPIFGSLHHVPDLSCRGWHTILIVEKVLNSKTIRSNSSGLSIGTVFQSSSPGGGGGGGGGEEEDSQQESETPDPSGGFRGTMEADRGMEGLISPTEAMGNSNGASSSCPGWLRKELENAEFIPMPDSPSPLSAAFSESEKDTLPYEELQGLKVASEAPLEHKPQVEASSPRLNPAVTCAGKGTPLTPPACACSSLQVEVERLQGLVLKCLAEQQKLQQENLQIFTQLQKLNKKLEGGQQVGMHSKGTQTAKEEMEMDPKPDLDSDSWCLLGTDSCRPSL

Test [3] addresses T3, PRKD2 (UniProt Q9BZL6).
T3 sequence (whole entry): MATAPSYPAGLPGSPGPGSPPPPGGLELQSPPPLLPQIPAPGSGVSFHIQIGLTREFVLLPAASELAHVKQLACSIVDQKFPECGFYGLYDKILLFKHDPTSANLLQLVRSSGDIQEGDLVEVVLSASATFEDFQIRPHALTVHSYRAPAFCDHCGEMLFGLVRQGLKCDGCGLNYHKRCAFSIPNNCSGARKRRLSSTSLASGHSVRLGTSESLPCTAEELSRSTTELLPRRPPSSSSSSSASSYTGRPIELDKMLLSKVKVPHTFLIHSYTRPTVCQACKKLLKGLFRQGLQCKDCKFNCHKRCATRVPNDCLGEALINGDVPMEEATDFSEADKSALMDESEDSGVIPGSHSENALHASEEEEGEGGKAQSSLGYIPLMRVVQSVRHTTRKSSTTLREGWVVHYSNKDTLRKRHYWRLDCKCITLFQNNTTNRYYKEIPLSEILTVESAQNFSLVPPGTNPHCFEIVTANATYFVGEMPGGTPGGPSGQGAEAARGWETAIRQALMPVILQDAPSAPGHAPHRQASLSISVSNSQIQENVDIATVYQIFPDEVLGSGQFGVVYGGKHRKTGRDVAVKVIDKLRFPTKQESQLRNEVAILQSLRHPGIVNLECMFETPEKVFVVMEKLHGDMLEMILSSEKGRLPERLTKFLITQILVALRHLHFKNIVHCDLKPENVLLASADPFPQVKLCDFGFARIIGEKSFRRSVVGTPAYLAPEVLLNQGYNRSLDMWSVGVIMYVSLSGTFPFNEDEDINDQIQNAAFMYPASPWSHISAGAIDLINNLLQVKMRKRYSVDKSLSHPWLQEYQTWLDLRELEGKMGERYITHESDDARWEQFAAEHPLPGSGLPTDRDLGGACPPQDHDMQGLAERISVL

The target of test [4] is UniProt Q5TCX8.
Chain of UniProt Q5TCX8 (Q5TCX8 whole entry): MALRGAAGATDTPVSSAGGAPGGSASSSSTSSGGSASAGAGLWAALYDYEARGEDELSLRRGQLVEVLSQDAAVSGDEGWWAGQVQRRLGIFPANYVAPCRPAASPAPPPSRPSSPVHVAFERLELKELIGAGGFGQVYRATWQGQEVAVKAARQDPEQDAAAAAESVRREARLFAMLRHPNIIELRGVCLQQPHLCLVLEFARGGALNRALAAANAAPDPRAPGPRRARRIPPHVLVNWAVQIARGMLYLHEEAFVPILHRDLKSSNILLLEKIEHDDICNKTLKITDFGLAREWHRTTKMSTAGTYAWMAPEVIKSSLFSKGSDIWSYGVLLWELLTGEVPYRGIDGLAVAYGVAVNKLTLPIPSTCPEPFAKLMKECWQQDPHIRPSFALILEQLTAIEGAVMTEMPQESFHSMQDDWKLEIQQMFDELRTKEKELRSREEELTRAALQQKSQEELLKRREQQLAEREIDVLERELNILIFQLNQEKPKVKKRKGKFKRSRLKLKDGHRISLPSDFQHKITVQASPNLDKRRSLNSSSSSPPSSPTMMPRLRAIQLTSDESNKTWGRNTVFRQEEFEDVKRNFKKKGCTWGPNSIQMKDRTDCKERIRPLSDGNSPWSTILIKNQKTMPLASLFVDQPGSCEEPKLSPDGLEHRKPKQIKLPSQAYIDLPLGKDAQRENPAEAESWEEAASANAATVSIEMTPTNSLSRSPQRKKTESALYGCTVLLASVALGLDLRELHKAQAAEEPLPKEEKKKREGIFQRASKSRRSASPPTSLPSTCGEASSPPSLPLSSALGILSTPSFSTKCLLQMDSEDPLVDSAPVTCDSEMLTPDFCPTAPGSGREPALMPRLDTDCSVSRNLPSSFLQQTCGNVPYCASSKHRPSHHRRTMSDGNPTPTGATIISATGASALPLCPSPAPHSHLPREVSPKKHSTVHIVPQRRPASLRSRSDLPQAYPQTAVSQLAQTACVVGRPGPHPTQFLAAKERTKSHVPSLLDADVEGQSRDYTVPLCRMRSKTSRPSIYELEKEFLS

Molecules are shown by their SMILES. ± gives the standard deviation of the averaged measurements.

For `CCc1cnn2c(NCc3ccc[n+]([O-])c3)cc(N3CCCC[C@H]3CCO)nc12` [dinaciclib], the pIC50 – broadly, −log10 of the IC50, conventionally taken in molar units – in test [1] is 6.485 ± 0.035; in test [2] it was below 4.52; in test [3], below 4.52; in test [4], below 4.52.

For the origin of these results see the supplement of paper PMC12076712.
